Test results taken from publication PMC7211198, “Phase 1b study of a small molecule antagonist of human chemokine (C-C motif) receptor 2 (PF-04136309) in combination with nab-paclitaxel/gemcitabine in first-line treatment of metastatic pancreatic ductal adenocarcinoma” (Investigational New Drugs, 2019).

Assay: Safety and tolerability (TEAEs, SAEs, DLTs, RP2D) in phase Ib study
Assay type: in vivo, human
Settings: 500 mg BID + nab-P/Gem
Source text: Safety assessments included collection of adverse events (AEs), serious AEs (SAEs), vital signs and physical examination, electrocardiogram (12-lead), laboratory assessments, including pregnancy test, and verification of concomitant treatments. A patient was considered as DLT-evaluable if the patient experienced a DLT or if otherwise, in the absence of a DLT, the patient received at least 85% of the planned doses of each study drug in the first 28-day cycle. DLTs were defined as any of the following events occurring in the first cycle of treatment (days 1 through 28) and attributed (i.e., judged to be at least possibly related) to the combination of PF-04136309 plus nab-paclitaxel/gemcitabine, where relationship with the combination could not be ruled out. DLTs were hematologic events of grade 4 neutropenia lasting >5 days; febrile neutropenia; grade ≥ 3 neutropenic infection; grade ≥ 3 thrombocytopenia with grade ≥ 2 bleeding; grade 4 thrombocytopenia; and nonhematologic events of grade 3 toxicities. Exceptions included nausea and vomiting responding to prophylaxis and/or treatment and lasting <7 days from each chemotherapy infusion period; diarrhea responding to treatment and lasting <7 days; grade 3 fatigue lasting <7 days; grade 3 QT interval corrected for heart rate prolongation (>500 msec) persisting after correction of any reversible causes; and/or grade 3 aspartate aminotransferase (AST) and/or alanine aminotransferase (ALT) increase lasting ≤7 days. All grade 4 toxicities and a delay of >2 weeks in receiving the next scheduled cycle due to persistent treatment-related toxicities were considered DLTs. AEs meeting DLT criteria in the dose-expansion phase included grade 3 events of diarrhea, hypokalemia, and dysesthesia and grade 4 hypoxia. […] AEs were graded according to the National Cancer Institute Common Terminology Criteria for Adverse Events, version 4.03.

O=C(NCC(=O)N1CC[C@H](N[C@H]2CC[C@@](O)(c3ccc(-c4ncccn4)cn3)CC2)C1)c1cccc(C(F)(F)F)c1 [PF-04136309]
DLT (n = 17, first cycle (days 1 through 28)): 3 (17.6) n (%) | ALT increase, grade ≥3 (n = 17, treatment-related TEAE): 3 (17.6) n (%) | AST increase, grade ≥3 (n = 17, treatment-related TEAE): 3 (17.6) n (%) | Anemia, grade ≥3 (n = 17, treatment-related TEAE): 4 (23.5) n (%) | Fatigue, grade ≥3 (n = 17, treatment-related TEAE): 4 (23.5) n (%) | Leukopenia, grade ≥3 (n = 17, treatment-related TEAE): 2 (11.8) n (%) | Lymphopenia, grade ≥3 (n = 17, treatment-related TEAE): 4 (23.5) n (%) | Neutropenia, grade ≥3 (n = 17, treatment-related TEAE): 2 (11.8) n (%) | Abdominal pain, Grade 1 (all-causality SAE): 0 n (%) | Abdominal pain, Grade 2 (all-causality SAE): 0 n (%) | Abdominal pain, Grade 3 (all-causality SAE): 2 (11.8) n (%) | Abdominal pain, Grade 4 (all-causality SAE): 0 n (%) | Abdominal pain, Grade 5 (all-causality SAE): 0 n (%) | Abdominal pain, Total (all-causality SAE): 2 (11.8) n (%) | Any SAE, Grade 1 (all-causality SAE): 1 (5.9) n (%) | Any SAE, Grade 2 (all-causality SAE): 1 (5.9) n (%) | Any SAE, Grade 3 (all-causality SAE): 7 (41.2) n (%) | Any SAE, Grade 4 (all-causality SAE): 1 (5.9) n (%) | Any SAE, Grade 5 (all-causality SAE): 1 (5.9) n (%) | Any SAE, Total (all-causality SAE): 11 (64.7) n (%) | Chest pain, Grade 1 (all-causality SAE): 0 n (%) | Chest pain, Grade 2 (all-causality SAE): 0 n (%) | Chest pain, Grade 3 (all-causality SAE): 1 (5.9) n (%) | Chest pain, Grade 4 (all-causality SAE): 0 n (%) | Chest pain, Grade 5 (all-causality SAE): 0 n (%) | Chest pain, Total (all-causality SAE): 1 (5.9) n (%) | Dyspnea, Grade 1 (all-causality SAE): 0 n (%) | Dyspnea, Grade 2 (all-causality SAE): 0 n (%) | Dyspnea, Grade 3 (all-causality SAE): 1 (5.9) n (%) | Dyspnea, Grade 4 (all-causality SAE): 0 n (%) | Dyspnea, Grade 5 (all-causality SAE): 0 n (%) | Dyspnea, Total (all-causality SAE): 1 (5.9) n (%) | Episcleritis, Grade 1 (all-causality SAE): 0 n (%) | Episcleritis, Grade 2 (all-causality SAE): 1 (5.9) n (%) | Episcleritis, Grade 3 (all-causality SAE): 0 n (%) | Episcleritis, Grade 4 (all-causality SAE): 0 n (%) | Episcleritis, Grade 5 (all-causality SAE): 0 n (%) | Episcleritis, Total (all-causality SAE): 1 (5.9) n (%) | Hypoxia, Grade 1 (all-causality SAE): 0 n (%) | Hypoxia, Grade 2 (all-causality SAE): 0 n (%) | Hypoxia, Grade 3 (all-causality SAE): 0 n (%) | Hypoxia, Grade 4 (all-causality SAE): 1 (5.9) n (%) | Hypoxia, Grade 5 (all-causality SAE): 0 n (%) | Hypoxia, Total (all-causality SAE): 1 (5.9) n (%) | Klebsiella bacteremia, Grade 1 (all-causality SAE): 0 n (%) | Klebsiella bacteremia, Grade 2 (all-causality SAE): 0 n (%) | Klebsiella bacteremia, Grade 3 (all-causality SAE): 1 (5.9) n (%) | Klebsiella bacteremia, Grade 4 (all-causality SAE): 0 n (%) | Klebsiella bacteremia, Grade 5 (all-causality SAE): 0 n (%) | Klebsiella bacteremia, Total (all-causality SAE): 1 (5.9) n (%) | Liver abscess, Grade 1 (all-causality SAE): 0 n (%) | Liver abscess, Grade 2 (all-causality SAE): 0 n (%) | Liver abscess, Grade 3 (all-causality SAE): 1 (5.9) n (%) | Liver abscess, Grade 4 (all-causality SAE): 0 n (%) | Liver abscess, Grade 5 (all-causality SAE): 0 n (%) | Liver abscess, Total (all-causality SAE): 1 (5.9) n (%) | Musculoskeletal pain, Grade 1 (all-causality SAE): 0 n (%) | Musculoskeletal pain, Grade 2 (all-causality SAE): 0 n (%) | Musculoskeletal pain, Grade 3 (all-causality SAE): 1 (5.9) n (%) | Musculoskeletal pain, Grade 4 (all-causality SAE): 0 n (%) | Musculoskeletal pain, Grade 5 (all-causality SAE): 0 n (%) | Musculoskeletal pain, Total (all-causality SAE): 1 (5.9) n (%) | Neck pain, Grade 1 (all-causality SAE): 0 n (%) | Neck pain, Grade 2 (all-causality SAE): 0 n (%) | Neck pain, Grade 3 (all-causality SAE): 1 (5.9) n (%) | Neck pain, Grade 4 (all-causality SAE): 0 n (%) | Neck pain, Grade 5 (all-causality SAE): 0 n (%) | Neck pain, Total (all-causality SAE): 1 (5.9) n (%) | Pneumonia, Grade 1 (all-causality SAE): 0 n (%) | Pneumonia, Grade 2 (all-causality SAE): 0 n (%) | Pneumonia, Grade 3 (all-causality SAE): 0 n (%) | Pneumonia, Grade 4 (all-causality SAE): 0 n (%) | Pneumonia, Grade 5 (all-causality SAE): 1 (5.9) n (%) | Pneumonia, Total (all-causality SAE): 1 (5.9) n (%) | Pneumonitis, Grade 1 (all-causality SAE): 0 n (%) | Pneumonitis, Grade 2 (all-causality SAE): 0 n (%) | Pneumonitis, Grade 3 (all-causality SAE): 3 (17.6) n (%) | Pneumonitis, Grade 4 (all-causality SAE): 0 n (%) | Pneumonitis, Grade 5 (all-causality SAE): 0 n (%) | Pneumonitis, Total (all-causality SAE): 3 (17.6) n (%) | Pyrexia, Grade 1 (all-causality SAE): 1 (5.9) n (%) | Pyrexia, Grade 2 (all-causality SAE): 1 (5.9) n (%) | Pyrexia, Grade 3 (all-causality SAE): 0 n (%) | Pyrexia, Grade 4 (all-causality SAE): 0 n (%) | Pyrexia, Grade 5 (all-causality SAE): 0 n (%) | Pyrexia, Total (all-causality SAE): 2 (11.8) n (%) | Small intestinal obstruction, Grade 1 (all-causality SAE): 0 n (%) | Small intestinal obstruction, Grade 2 (all-causality SAE): 0 n (%) | Small intestinal obstruction, Grade 3 (all-causality SAE): 1 (5.9) n (%) | Small intestinal obstruction, Grade 4 (all-causality SAE): 0 n (%) | Small intestinal obstruction, Grade 5 (all-causality SAE): 0 n (%) | Small intestinal obstruction, Total (all-causality SAE): 1 (5.9) n (%) | ALT increase, Grade 1 (all-causality TEAE): 1 (5.9) n (%) | ALT increase, Grade 2 (all-causality TEAE): 2 (11.8) n (%) | ALT increase, Grade 3 (all-causality TEAE): 3 (17.6) n (%) | ALT increase, Grade 4 (all-causality TEAE): 1 (5.9) n (%) | ALT increase, Grade 5 (all-causality TEAE): 0 n (%) | ALT increase, Total (all-causality TEAE): 7 (41.2) n (%) | AST increase, Grade 1 (all-causality TEAE): 0 n (%) | AST increase, Grade 2 (all-causality TEAE): 1 (5.9) n (%) | AST increase, Grade 3 (all-causality TEAE): 5 (29.4) n (%) | AST increase, Grade 4 (all-causality TEAE): 0 n (%) | AST increase, Grade 5 (all-causality TEAE): 0 n (%) | AST increase, Total (all-causality TEAE): 6 (35.3) n (%) | Abdominal pain, Grade 1 (all-causality TEAE): 0 n (%) | Abdominal pain, Grade 2 (all-causality TEAE): 3 (17.6) n (%) | Abdominal pain, Grade 3 (all-causality TEAE): 3 (17.6) n (%) | Abdominal pain, Grade 4 (all-causality TEAE): 0 n (%) | Abdominal pain, Grade 5 (all-causality TEAE): 0 n (%) | Abdominal pain, Total (all-causality TEAE): 6 (35.3) n (%) | Alopecia, Grade 1 (all-causality TEAE): 7 (41.2) n (%) | Alopecia, Grade 2 (all-causality TEAE): 3 (17.6) n (%) | Alopecia, Grade 3 (all-causality TEAE): 0 n (%)
